# Measurements published in ChEMBL document CHEMBL1201862, “PubChem BioAssay data set” (2004).
#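 Where inhibition never reached the appropriate level, the endpoint shown equals the highest concentration tested. Otherwise, values were interpolated linearly from a five-concentration, 48-hour dose response in 96-well plates. GI50 = concentration required for 50% inhibition of growth.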 Activity calls are given as the source filed them. Rule as the data show it: active = GI50 up to about 1.1 µM and inactive = higher.
# Assays:
# Test in all cases: NCI tumour cell line growth inhibition, 48 h
# NCI/ADR-RES = tested on: NCI/ADR-RES
# NCI-H23 = tested on: NCI-H23
# Hs-578T = tested on: Hs-578T
# NCI-H460 = tested on: NCI-H460
# TK-10 = tested on: TK-10
# MOLT-4 = tested on: MOLT-4
# UACC-62 = tested on: UACC-62
# SF-268 = tested on: SF-268
# EKVX = tested on: EKVX
# OVCAR-3 = tested on: OVCAR-3
# OVCAR-4 = tested on: OVCAR-4
# A498 = tested on: A498
# NCI-H226 = tested on: NCI-H226
# SK-OV-3 = tested on: SK-OV-3
# U-251 = tested on: U-251
# A549 = tested on: A549
# Malme-3M = tested on: Malme-3M
# HOP-92 = tested on: HOP-92
# SNB-75 = tested on: SNB-75
# DU-145 = tested on: DU-145
# SNB-19 = tested on: SNB-19
# COLO 205 = tested on: COLO 205
# ACHN = tested on: ACHN
# HCT-116 = tested on: HCT-116
# HCT-15 = tested on: HCT-15
# KM12 = tested on: KM12
# UACC-257 = tested on: UACC-257
# SF-539 = tested on: SF-539
# SW-620 = tested on: SW-620
# SR = tested on: SR
# HT-29 = tested on: HT-29
# SF-295 = tested on: SF-295
# OVCAR-5 = tested on: OVCAR-5
# MDA-MB-231 = tested on: MDA-MB-231
# SK-MEL-2 = tested on: SK-MEL-2
# HCC 2998 = tested on: HCC 2998
# UO-31 = tested on: UO-31
# RXF 393 = tested on: RXF 393
# SK-MEL-5 = tested on: SK-MEL-5
# T47D = tested on: T47D
# CAKI-1 = tested on: CAKI-1
# M14 = tested on: M14
# 786-0 = tested on: 786-0
# PC-3 = tested on: PC-3
# MDA-MB-435 = tested on: MDA-MB-435
# BT-549 = tested on: BT-549
# HOP-62 = tested on: HOP-62
structure (smiles),measurement,setting,value
Cc1c(/C=N\NC(=S)NCCNC(=S)N/N=C\c2c(C)n(C)n(-c3ccccc3)c2=O)c(=O)n(-c2ccccc2)n1C,GI50,NCI/ADR-RES,> 100 µM (inactive)
same,GI50,NCI-H23,> 100 µM (inactive)
same,GI50,Hs-578T,> 100 µM (inactive)
same,GI50,NCI-H460,> 100 µM (inactive)
same,GI50,TK-10,> 100 µM (inactive)
same,GI50,MOLT-4,> 100 µM (inactive)
same,GI50,UACC-62,> 100 µM (inactive)
same,GI50,SF-268,> 100 µM (inactive)
same,GI50,EKVX,> 100 µM (inactive)
same,GI50,OVCAR-3,> 100 µM (inactive)
same,GI50,OVCAR-4,> 100 µM (inactive)
same,GI50,A498,> 100 µM (inactive)
same,GI50,NCI-H226,> 100 µM (inactive)
same,GI50,SK-OV-3,> 100 µM (inactive)
same,GI50,U-251,> 100 µM (inactive)
same,GI50,A549,> 100 µM (inactive)
same,GI50,Malme-3M,> 100 µM (inactive)
same,GI50,HOP-92,> 100 µM (inactive)
same,GI50,SNB-75,38 µM (inactive)
same,GI50,DU-145,> 100 µM (inactive)
same,GI50,SNB-19,> 100 µM (inactive)
same,GI50,COLO 205,> 100 µM (inactive)
same,GI50,ACHN,> 100 µM (inactive)
same,GI50,HCT-116,> 100 µM (inactive)
same,GI50,HCT-15,> 100 µM
same,GI50,KM12,> 100 µM (inactive)
same,GI50,UACC-257,> 100 µM (inactive)
same,GI50,SF-539,> 100 µM (inactive)
same,GI50,SW-620,> 100 µM (inactive)
same,GI50,SR,> 100 µM (inactive)
same,GI50,HT-29,> 100 µM (inactive)
same,GI50,SF-295,> 100 µM (inactive)
same,GI50,OVCAR-5,> 100 µM (inactive)
same,GI50,MDA-MB-231,54.8 µM (inactive)
same,GI50,SK-MEL-2,22.4 µM (inactive)
same,GI50,HCC 2998,> 100 µM (inactive)
same,GI50,UO-31,> 100 µM (inactive)
same,GI50,RXF 393,> 100 µM (inactive)
same,GI50,SK-MEL-5,> 100 µM (inactive)
same,GI50,T47D,> 100 µM (inactive)
same,GI50,CAKI-1,> 100 µM (inactive)
same,GI50,M14,> 100 µM (inactive)
same,GI50,786-0,> 100 µM (inactive)
same,GI50,PC-3,> 100 µM (inactive)
same,GI50,MDA-MB-435,92.5 µM (inactive)
same,GI50,BT-549,> 100 µM (inactive)
same,GI50,HOP-62,> 100 µM (inactive)
